From patent publication US20260007133A1, “HERBICIDAL COMPOSITION COMPRISING AZINE COMPOUNDS” (BASF SE, priority 2022, published 2026)
Where two headings read alike, the source gives them in different places.

Tests used:
Format in all cases: in vivo
[1] = test system: Echinochloa crus-galli; test: Greenhouse post-emergence (POST) herbicidal test on ECHCG
In short: (§1)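 Injury was rated visually on a 0–100 scale, where 0 is normal growth and 100 is complete above-ground kill, 20 days after treatment. Test plants at 3–15 cm height received a post-emergence spray of water-dispersed active from 5% emulsion concentrates. Pots held loamy sand with ~3.0% humus, at 10-25 °C or 20-35 °C depending on species.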

[2] = test system: AMAPA; test: Greenhouse pre-emergence (PRE) herbicidal test on AMAPA; conditions: pre-emergence
[3] = test system: Amaranthus retroflexus; test: Greenhouse post-emergence (POST) herbicidal test on AMARE; conditions: Amaranthus retroflexus, post-emergence
In short: as §1

[4] = test system: Brachiaria decumbens; test: Greenhouse pre-emergence (PRE) herbicidal test on BRADC; conditions: Urochloa decumbens, BRADC PRE, use rate 2 gai/ha
Text: (§2) The culture containers used were plastic pots containing loamy sand with approximately 3.0% of humus as substrate. The seeds of the test plants were sown separately for each species.
(§3) For the pre-emergence treatment, the active compounds, suspended or emulsified in water, were applied directly after sowing by means of finely distributing nozzles. The containers were irrigated gently to promote germination and growth and subsequently covered with transparent plastic hoods until the plants had rooted. This cover caused uniform germination of the test plants unless this was adversely affected by the active compounds.
(§4) Depending on the species, the plants were kept at 10-25° C. and 20-35° C., respectively.
(§5) The test period extended over 2 to 4 weeks. During this time, the plants were tended and their response to the individual treatments was evaluated.
(§6) Evaluation was carried out using a scale from 0 to 100. 100 means no emergence of the plants, or complete destruction of at least the above-ground parts, and 0 means no damage or normal course of growth. A good herbicidal activity is given at values of at least 70, and very good herbicidal activity is given at values of at least 85.
(§7) If not stated differently, the respective components A and B, and if appropriate, C were formulated as a 5% by weight strength emulsion concentrate and, with addition of the amount of solvent system, introduced into the spray liquor used for applying the active compound.
(§8) As indicated application was either post emergent (POST) at the respective growth stage (GS) of the weed (BBCH code), or pre-emergent (PRE).
(§9) Assessment was 20 days after treatment (DAT).

[5] = test system: Alopecurus myosuroides; test: Greenhouse pre-emergence (PRE) herbicidal test on ALOMY; conditions: Alopecurus myosuroides, pre-emergence
In short: (§10)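 Seeds were sown per species in pots of loamy sand with about 3.0% humus, treated pre-emergence, watered and hooded until rooted. Plants grew at 10-25° C or 20-35° C depending on species. Damage was scored 0-100 (100 = no emergence or above-ground parts destroyed) at 20 DAT.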

[6] = test system: Echinochloa crus-galli; test: Greenhouse pre-emergence (PRE) herbicidal test on ECHCG; conditions: Echinochloa crus-galli, pre-emergence, PRE
[7] = test system: Abutilon theophrasti; test: Greenhouse post-emergence (POST) herbicidal test on ABUTH; conditions: Abutilon theophrasti, post-emergence; for pest or weed control at 2 g/ha: I-3 solo 2 gai/ha
In short: as §1

[8] = test system: Commelina benghalensis; test: Greenhouse pre-emergence (PRE) herbicidal test on COMBE; conditions: Commelina benghalensis, pre-emergence; for inhibition at 4 g/ha: use rate 4 gai/ha
In short: as §10

[9] = test system: Ipomoea hederacea; test: Greenhouse pre-emergence (PRE) herbicidal test on IPOHE; conditions: Ipomoea hederacea, pre-emergence; for inhibition at 8 g/ha: use rate 8 gai/ha
Text: as §2, §3, §4, §5, §6, §7, §8, §9

[10] = 240 h, use rate 1 gai/ha, 10 DAT
[11] = 480 h, PRE, use rate 2 gai/ha, 20 DAT, read-out: % activity

With COc1c(Cl)cc(F)c(F)c1Nc1nc(N)nc(C(C)(C)F)n1 [Compound I-3] the “% activity” value ([1]; ECHCG POST, use rate 2 gai/ha) was 25%, the “% activity” value ([1]; ECHCG POST, use rate 8 gai/ha) was 40% and the inhibition at 2 g/ha ([1]; Echinochloa crus-galli, post-emergence, 432 h, POST, ECHCG, 2 gai/ha, 18 DAT, read-out: % activity solo application) was 0%. For the same compound, the pest or weed control at 2 g/ha ([1]; Echinochloa crus-galli, post-emergence, 432 h, POST, ECHCG, I-3 solo 2 gai/ha, 18 DAT) was 0%, the inhibition at 2 g/ha ([1]; Echinochloa crus-galli, post-emergence, 480 h, ECHCG POST, 20 DAT, use rate 2 gai/ha, read-out: % activity) was 10% and the inhibition at 8 g/ha ([1]; Echinochloa crus-galli, post-emergence, 480 h, ECHCG POST, 20 DAT, use rate 8 gai/ha, read-out: % activity) was 55%. The pest or weed control at 2 g/ha ([1]; Echinochloa crus-galli, post-emergence, 480 h, POST, 2 gai/ha, 20 DAT) was 10%, the inhibition at 2 g/ha ([1]; Echinochloa crus-galli, post-emergence, 480 h, POST, ECHCG, use rate 2 gai/ha, 20 DAT, read-out: solo application % activity) was 0% and the inhibition at 4 g/ha ([1]; Echinochloa crus-galli, post-emergence, 480 h, POST, ECHCG, use rate 4 gai/ha, 20 DAT) was 35%. For the same compound, the inhibition at 8 g/ha ([1]; Echinochloa crus-galli, post-emergence, 480 h, POST, ECHCG, use rate 8 gai/ha, 20 DAT, read-out: % activity) was 50%, the inhibition at 8 g/ha ([1]; Echinochloa crus-galli, post-emergence, 480 h, POST, ECHCG, use rate 8 gai/ha, 20 DAT, read-out: solo application % activity) was 10% and the inhibition at 8 g/ha ([1]; Echinochloa crus-galli, post-emergence, ECHCG POST, use rate 8 gai/ha, read-out: % activity) was 35%. The inhibition at 2 g/ha ([1]; Echinochloa crus-galli, post-emergence, POST, ECHCG, use rate 2 gai/ha, read-out: % activity) was 30%, the inhibition at 1 g/ha [2, 10] was 40% and the inhibition at 2 g/ha ([2]; 240 h, use rate 2 gai/ha, 10 DAT) was 60%. It also gave an inhibition at 8 g/ha ([2]; 480 h, use rate 8 gai/ha, 20 DAT) of 60%, a pest or weed control at 8 g/ha ([3]; 432 h, POST, AMARE, I-3 solo 8 gai/ha, 18 DAT) of 90% and an inhibition at 2 g/ha ([3]; 480 h, POST, AMARE, 2 gai/ha, 20 DAT, read-out: % activity solo application) of 45%. The inhibition at 4 g/ha ([3]; 480 h, POST, AMARE, use rate 4 gai/ha, 20 DAT) was 50%, the inhibition at 2 g/ha ([3]; AMARE POST, use rate 2 gai/ha, read-out: % activity) was 60% and the inhibition at 8 g/ha ([3]; AMARE POST, use rate 8 gai/ha, read-out: % activity) was 75%. It also gave an inhibition at 2 g/ha ([3]; POST, AMARE, use rate 2 gai/ha, read-out: % activity) of 70%, an inhibition at 2 g/ha [4] of 30% and a pest or weed control at 2 g/ha ([5]; 480 h, PRE, 2 gai/ha, 20 DAT, read-out: % activity) of 10%. It also gave a pest or weed control at 8 g/ha ([5]; 480 h, PRE, 8 gai/ha, 20 DAT) of 70%, an inhibition at 2 g/ha ([5]; 480 h, PRE, ALOMY, 2 gai/ha, 20 DAT, read-out: % activity solo application) of 5% and an inhibition at 8 g/ha ([5]; 480 h, PRE, ALOMY, 8 gai/ha, 20 DAT, read-out: % activity solo application) of 90%. The inhibition at 8 g/ha ([5]; 480 h, PRE, ALOMY, use rate 8 gai/ha, 20 DAT, read-out: solo application % activity) was 90%, the inhibition at 2 g/ha [5, 11] was 65% and the inhibition at 2 g/ha ([5]; ALOMY PRE, use rate 2 gai/ha, read-out: % activity) was 25%. The inhibition at 4 g/ha ([5]; PRE, ALOMY, use rate 4 gai/ha) was 90%, the inhibition at 1 g/ha [6, 10] was 10% and the inhibition at 2 g/ha ([6]; 240 h, use rate 2 gai/ha, 10 DAT, read-out: % activity) was 10%. The inhibition at 4 g/ha ([6]; 240 h, use rate 4 gai/ha, 10 DAT) was 20%, the inhibition at 8 g/ha ([6]; 240 h, use rate 8 gai/ha, 10 DAT, read-out: % activity) was 20% and the pest or weed control at 2 g/ha ([6]; 432 h, ECHCG, I-3 solo 2 gai/ha, 18 DAT) was 25%. The inhibition at 2 g/ha ([6]; 480 h, ECHCG, 2 gai/ha, 20 DAT, read-out: % activity solo application) was 5%, the inhibition at 8 g/ha ([6]; 480 h, ECHCG, 8 gai/ha, 20 DAT, read-out: % activity solo application) was 95% and the inhibition at 2 g/ha ([6]; 480 h, ECHCG, use rate 2 gai/ha, 20 DAT, read-out: solo application % activity) was 5%. The inhibition at 8 g/ha ([6]; 480 h, ECHCG, use rate 8 gai/ha, 20 DAT, read-out: solo application % activity) was 95%, the pest or weed control at 2 g/ha ([7]; 432 h, POST, ABUTH, 18 DAT) was 35% and the pest or weed control at 8 g/ha ([7]; 432 h, POST, ABUTH, I-3 solo 8 gai/ha, 18 DAT) was 65%. The pest or weed control at 8 g/ha ([7]; 480 h, POST, 8 gai/ha, 20 DAT) was 50%, the inhibition at 2 g/ha ([7]; 480 h, POST, ABUTH, 2 gai/ha, 20 DAT, read-out: % activity solo application) was 10% and the pest or weed control at 2 g/ha ([7]; 480 h, POST, ABUTH, 20 DAT) was 50%. The pest or weed control at 8 g/ha ([7]; 480 h, POST, ABUTH, I-3 solo 8 gai/ha, 20 DAT) was 80%, the inhibition at 2 g/ha ([7]; 480 h, POST, ABUTH, use rate 2 gai/ha, 20 DAT, read-out: solo application % activity) was 10% and the inhibition at 4 g/ha ([7]; 480 h, POST, ABUTH, use rate 4 gai/ha, 20 DAT) was 10%. The inhibition at 16 g/ha ([7]; 480 h, POST, ABUTH, use rate 16 gai/ha, 20 DAT) was 50%, the inhibition at 2 g/ha ([7]; ABUTH POST, use rate 2 gai/ha, read-out: % activity) was 20% and the inhibition at 8 g/ha ([7]; ABUTH POST, use rate 8 gai/ha, read-out: % activity) was 85%. It also gave an inhibition at 2 g/ha ([7]; POST, ABUTH, use rate 2 gai/ha, read-out: % activity) of 30%, a pest or weed control at 2 g/ha ([8]; 432 h, PRE, COMBE, I-3 solo 2 gai/ha, 18 DAT, read-out: % activity) of 50% and an inhibition at 2 g/ha ([8]; 480 h, COMBE PRE, 20 DAT, use rate 2 gai/ha, read-out: % activity) of 0%. For the same compound, the inhibition at 8 g/ha ([8]; 480 h, COMBE PRE, 20 DAT, use rate 8 gai/ha, read-out: % activity) was 75%, the pest or weed control at 8 g/ha ([8]; 480 h, PRE, 8 gai/ha, 20 DAT) was 75% and the inhibition at 2 g/ha ([8]; 480 h, PRE, COMBE, 2 gai/ha, 20 DAT, read-out: % activity solo application) was 10%. The inhibition at 8 g/ha ([8]; 480 h, PRE, COMBE, 8 gai/ha, 20 DAT, read-out: % activity solo application) was 10%, the inhibition at 2 g/ha ([8]; 480 h, PRE, COMBE, use rate 2 gai/ha, 20 DAT, read-out: solo application % activity) was 10% and the inhibition at 4 g/ha ([8]; 480 h, PRE, COMBE, 20 DAT) was 35%. It also gave an inhibition at 8 g/ha ([8]; 480 h, PRE, COMBE, use rate 8 gai/ha, 20 DAT, read-out: % activity) of 70%, an inhibition at 8 g/ha ([8]; 480 h, PRE, COMBE, use rate 8 gai/ha, 20 DAT, read-out: solo application % activity) of 10% and an inhibition at 2 g/ha [8, 11] of 10%. It also gave an inhibition at 8 g/ha ([8]; 480 h, PRE, use rate 8 gai/ha, 20 DAT, read-out: % activity) of 35%, an inhibition at 8 g/ha ([8]; COMBE PRE, use rate 8 gai/ha, read-out: % activity) of 60% and an inhibition at 2 g/ha ([8]; PRE, COMBE, use rate 2 gai/ha, read-out: % activity) of 0%. The inhibition at 4 g/ha ([8]; PRE, COMBE) was 25%, the inhibition at 8 g/ha ([8]; PRE, COMBE, use rate 8 gai/ha, read-out: % activity) was 75% and the inhibition at 4 g/ha ([9]; 480 h, PRE, IPOHE, use rate 4 gai/ha, 20 DAT) was 5%. The inhibition at 8 g/ha ([9]; 480 h, PRE, IPOHE, 20 DAT) was 30%, the inhibition at 16 g/ha ([9]; 480 h, PRE, IPOHE, use rate 16 gai/ha, 20 DAT) was 40% and the inhibition at 32 g/ha ([9]; 480 h, PRE, IPOHE, use rate 32 gai/ha, 20 DAT) was 40%. For the same compound, the inhibition at 8 g/ha ([9]; IPOHE PRE) was 35%.
